Reference: patent US20260256792A1, “TREATMENT OF CHRONIC SPONTANEOUS URTICARIA BY ADMINISTERING (R)-2-[3-[4-AMINO-3-(2-FLUORO-4-PHENOXY-PHENYL)PYRAZOLO[3,4-D]PYRIMIDIN-1-YL]PIPERIDINE-1-CARBONYL]-4-METHYL-4-[4-(OXETAN-3-YL)PIPERAZIN-1-YL]PENT-2-ENENITRILE” (priority 2023, published 2026)

Tested on: moderate-to-severe chronic spontaneous urticaria (CSU)
Assay: Phase 2 CSU study: urticaria activity score over 7 days (UAS7)
Assay type: in vivo, human
Conditions: Omalizumab-Naïve
Description: The study comprises a 12 week, randomized, double-blind, placebo-controlled, multi-center, dose-ranging efficacy and safety phase, followed by a 40 week open label extension (OLE) phase (see FIG. 1). The study consists of three phases and an optional OLE phase. […] Clinically, CSU is characterized by the spontaneous and recurrent appearance of pruritic hives. The proposed primary endpoints were the UAS7 at Week 12 in EU and EU reference countries and the ISS7 in the US. Regardless of where a participant was from, all assessments were the same. The UAS7 score is a composite score containing both the HSS7 and the ISS7. This allowed a global assessment of the two key components of urticaria: hives and itch. […] The UAS is a validated PRO measure. […] The daily UAS scores range from 0 to 6 point/day. […] Patients were to complete the UAS using the e-diary. […] The following secondary endpoints were to be analyzed using the same approach as for the primary endpoint: • Change from baseline in UAS7 at Week 4 • Change from baseline in UAS7 at Week 12 (for US and US reference countries) • Change from baseline in ISS7 at Week 12 (except US and US reference countries) • Change from baseline in HSS7 at Week 12 The following responder secondary endpoints were to be analyzed using the Cochran-Mantel-Haenszel test adjusted by region: • Proportion of participants with UAS7<6 at Week 12 • Proportion of participants with UAS7=0 at Week 12 Participants who received selected prohibited medications and/or rescue medications were to be considered as non-responders for time points after the medication usage. For other participants, all available data including those collected during the off-treatment period were to be used to determine the responder/non-responder status. Missing data were to be considered as non-responders.

[1] = Baseline Total IgE (IU/mL) ≥300, 400 mg BID
[2] = Baseline Total IgE (IU/mL) ≥300, 400 mg QPM
[3] = Baseline Total IgE (IU/mL) ≥300, 400 mg TID
[4] = Baseline UAS7 score <28, 400 mg BID
[5] = Baseline UAS7 score <28, 400 mg QPM
[6] = Baseline UAS7 score <28, 400 mg TID
[7] = Baseline UAS7 score ≥28, 400 mg BID
[8] = Baseline UAS7 score ≥28, 400 mg QPM
[9] = Baseline UAS7 score ≥28, 400 mg TID
[10] = Duration of disease (years) 2-10, 400 mg BID
[11] = Duration of disease (years) 2-10, 400 mg QPM
[12] = Duration of disease (years) 2-10, 400 mg TID
[13] = Duration of disease (years) <2, 400 mg BID
[14] = Duration of disease (years) <2, 400 mg QPM
[15] = Duration of disease (years) <2, 400 mg TID
[16] = Duration of disease (years) >10, 400 mg BID
[17] = Duration of disease (years) >10, 400 mg QPM
[18] = Duration of disease (years) >10, 400 mg TID
[19] = Ethnicity Non-Hispanic, 400 mg BID
[20] = Ethnicity Non-Hispanic, 400 mg QPM

## CC(C)(C=C(C#N)C(=O)N1CCC[C@@H](n2nc(-c3ccc(Oc4ccccc4)cc3F)c3c(N)ncnc32)C1)N1CCN(C2COC2)CC1 [rilzabrutinib, (R)-2-[3-[4-amino-3-(2-fluoro-4-phenoxy-phenyl)pyrazolo[3,4-d]pyrimidin-1-yl]piperidine-1-carbonyl]-4-methyl-4-[4-(oxetan-3-yl)piperazin-1-yl]pent-2-enenitrile]
Baseline Total IgE (IU/mL) ≥100, 400 mg TID
  Change from Baseline in UAS7 at Week 12: Mean (SD): −17.31 (9.51)
[1]
  Change from Baseline in UAS7 at Week 12: LS Mean (SE): −14.22 (3.59)
  Change from Baseline in UAS7 at Week 12: LS Mean Diff vs. placebo (95% CI): −1.77 (−12.00, 8.47)
[2]
  Change from Baseline in UAS7 at Week 12: LS Mean (SE): −8.04 (3.57)
  Change from Baseline in UAS7 at Week 12: LS Mean Diff vs. placebo (95% CI): 4.42 (−5.58, 14.42)
  Change from Baseline in UAS7 at Week 12: Mean (SD): −9.60 (9.52)
[3]
  Change from Baseline in UAS7 at Week 12: LS Mean (SE): −14.94 (3.46)
  Change from Baseline in UAS7 at Week 12: LS Mean Diff vs. placebo (95% CI): −2.48 (−12.37, 7.41)
  Change from Baseline in UAS7 at Week 12: Mean (SD): −16.12 (9.22)
[4]
  Change from Baseline in UAS7 at Week 12: LS Mean Diff vs. placebo (95% CI): −4.49 (−12.35, 3.38)
  Change from Baseline in UAS7 at Week 12: Mean (SD): −11.43 (8.06)
[5]
  Change from Baseline in UAS7 at Week 12: LS Mean (SE): −5.87 (3.45)
  Change from Baseline in UAS7 at Week 12: LS Mean Diff vs. placebo (95% CI): −1.46 (−10.06, 7.14)
  Change from Baseline in UAS7 at Week 12: Mean (SD): −8.39 (3.86)
[6]
  Change from Baseline in UAS7 at Week 12: LS Mean Diff vs. placebo (95% CI): −7.34 (−15.21, 0.52)
  Change from Baseline in UAS7 at Week 12: Mean (SD): −13.43 (7.05)
[7]
  Change from Baseline in UAS7 at Week 12: LS Mean (SE): −17.23 (2.81)
  Change from Baseline in UAS7 at Week 12: LS Mean Diff vs. placebo (95% CI): −4.13 (−11.78, 3.52)
  Change from Baseline in UAS7 at Week 12: Mean (SD): −16.73 (14.20)
[8]
  Change from Baseline in UAS7 at Week 12: LS Mean (SE): −11.17 (2.39)
  Change from Baseline in UAS7 at Week 12: LS Mean Diff vs. placebo (95% CI): 1.94 (−5.16, 9.03)
[9]
  Change from Baseline in UAS7 at Week 12: LS Mean (SE): −19.91 (2.64)
  Change from Baseline in UAS7 at Week 12: LS Mean Diff vs. placebo (95% CI): −6.81 (−14.23, 0.62)
  Change from Baseline in UAS7 at Week 12: Mean (SD): −22.66 (12.35)
Baseline weight (kg) <72.9 (Median), 400 mg BID
  Change from Baseline in UAS7 at Week 12: Mean (SD): −12.97 (9.84)
Baseline weight (kg) <72.9 (Median), 400 mg QPM
  Change from Baseline in UAS7 at Week 12: Mean (SD): −7.98 (7.20)
Baseline weight (kg) <72.9 (Median), 400 mg TID
  Change from Baseline in UAS7 at Week 12: Mean (SD): −20.83 (13.25)
[10]
  Change from Baseline in UAS7 at Week 12: LS Mean (SE): −12.88 (3.03)
  Change from Baseline in UAS7 at Week 12: LS Mean Diff vs. placebo (95% CI): −0.05 (−8.24, 8.14)
  Change from Baseline in UAS7 at Week 12: Mean (SD): −15.56 (14.75)
[11]
  Change from Baseline in UAS7 at Week 12: LS Mean (SE): −9.73 (2.58)
  Change from Baseline in UAS7 at Week 12: LS Mean Diff vs. placebo (95% CI): 3.11 (−4.51, 10.72)
  Change from Baseline in UAS7 at Week 12: Mean (SD): −10.83 (9.70)
[12]
  Change from Baseline in UAS7 at Week 12: LS Mean (SE): −16.44 (3.07)
  Change from Baseline in UAS7 at Week 12: LS Mean Diff vs. placebo (95% CI): −3.61 (−11.80, 4.58)
  Change from Baseline in UAS7 at Week 12: Mean (SD): −17.51 (11.39)
[13]
  Change from Baseline in UAS7 at Week 12: LS Mean (SE): −16.30 (2.66)
  Change from Baseline in UAS7 at Week 12: LS Mean Diff vs. placebo (95% CI): −9.24 (−17.02, −1.46)
  Change from Baseline in UAS7 at Week 12: Mean (SD): −14.54 (10.00)
[14]
  Change from Baseline in UAS7 at Week 12: LS Mean (SE): −10.62 (3.36)
  Change from Baseline in UAS7 at Week 12: LS Mean Diff vs. placebo (95% CI): −3.55 (−12.28, 5.17)
[15]
  Change from Baseline in UAS7 at Week 12: LS Mean (SE): −17.20 (3.03)
  Change from Baseline in UAS7 at Week 12: LS Mean Diff vs. placebo (95% CI): −10.14 (−18.42, −1.86)
  Change from Baseline in UAS7 at Week 12: Mean (SD): −19.20 (11.00)
[16]
  Change from Baseline in UAS7 at Week 12: LS Mean (SE): 8.87 (12.67)
  Change from Baseline in UAS7 at Week 12: LS Mean Diff vs. placebo (95% CI): 14.79 (−14.26, 43.85)
  Change from Baseline in UAS7 at Week 12: Mean (SD): −1.83 (NC)
[17]
  Change from Baseline in UAS7 at Week 12: LS Mean Diff vs. placebo (95% CI): 4.87 (−13.68, 23.41)
  Change from Baseline in UAS7 at Week 12: Mean (SD): −4.70 (7.74)
[18]
  Change from Baseline in UAS7 at Week 12: LS Mean (SE): −18.73 (5.22)
  Change from Baseline in UAS7 at Week 12: LS Mean Diff vs. placebo (95% CI): −12.81 (−29.81, 4.20)
  Change from Baseline in UAS7 at Week 12: Mean (SD): −23.13 (14.76)
Ethnicity Hispanic, 400 mg BID
  Change from Baseline in UAS7 at Week 12: LS Mean (SE): −10.31 (3.59)
  Change from Baseline in UAS7 at Week 12: LS Mean Diff vs. placebo (95% CI): 2.24 (−7.72, 12.19)
  Change from Baseline in UAS7 at Week 12: Mean (SD): −10.23 (11.81)
Ethnicity Hispanic, 400 mg QPM
  Change from Baseline in UAS7 at Week 12: LS Mean (SE): −8.80 (2.97)
  Change from Baseline in UAS7 at Week 12: LS Mean Diff vs. placebo (95% CI): 3.74 (−5.35, 12.83)
  Change from Baseline in UAS7 at Week 12: Mean (SD): −10.26 (9.92)
Ethnicity Hispanic, 400 mg TID
  Change from Baseline in UAS7 at Week 12: LS Mean (SE): −13.76 (3.78)
  Change from Baseline in UAS7 at Week 12: LS Mean Diff vs. placebo (95% CI): −1.22 (−11.34, 8.91)
  Change from Baseline in UAS7 at Week 12: Mean (SD): −15.49 (12.69)
[19]
  Change from Baseline in UAS7 at Week 12: LS Mean (SE): −16.16 (2.46)
  Change from Baseline in UAS7 at Week 12: LS Mean Diff vs. placebo (95% CI): −7.92 (−14.63, −1.20)
  Change from Baseline in UAS7 at Week 12: Mean (SD): −16.52 (12.39)
[20]
  Change from Baseline in UAS7 at Week 12: LS Mean (SE): 9.79 (2.59)
  Change from Baseline in UAS7 at Week 12: LS Mean Diff vs. placebo (95% CI): −1.54 (−8.49, 5.41)
